The text below walks through data of patent EP4721737A1, “USE OF PHARMACEUTICAL COMPOSITION COMPRISING COMPOUND HAVING BIS(AZANYLYLIDENE) SULFONYL STRUCTURE FOR TREATING ANEMIA-RELATED DISEASES” (Scinnohub Pharmaceutical Co., Ltd., priority 2023, dated 2024).

Structures are written as SMILES.

A word on the AC50: it is the concentration at which the activity in the assay is half-maximal.

One assay addresses recombinant human PKR (Homo sapiens, UniProt P30613). Description: pyruvate kinase (PKR) activity test, activation of recombinant enzyme (fluorescence kit). The class given is biochemical. The method, then:
To test the activation effect of the compound of the present disclosure on recombinant human PKR.
3.1 A recombinant human PKR enzyme solution was prepared at a concentration of 60 ng/well (a 20 µL reaction system), and 5 µL of the solution was added into each well of a black transparent bottom 384-well plate.
3.2 Compound solutions were prepared at different concentrations, with the final concentrations of 1000/300/100 nM (containing 1% DMSO). Each 5 µL of the compound solution was added into the plate in step 3.1 and mixed well. The plate was incubated at room temperature for 10 min.
3.3 A reaction system was prepared according to the instructions of a kit (as shown in the table below), and 10 µL of the reaction system was added into each well of the 384-well plate, and mixed uniformly with the solution in step 3.2.
3.4 The 384-well plate was placed on a microplate reader to detect the fluorescence value at 540/590 nm, where the value was read every 2 minutes and the detection was conducted continuously for 1 hour.
3.5 The Slope value within the detection time was calculated, and the 1% DMSO well was used as a control well to calculate a compound activation rate. Activation rate % = (Slopeofcompoundwell/Slopeofcontrolwell) × 100% [formula]
With the log value of the compound concentration as the X axis and the percentage activation rate as the Y axis, a dose-effect curve was fitted with the log(agonist) vs. response-variable slope of the analysis software GraphPad Prism 5, and the AC50 value of the activity of each compound against PKR was obtained. Y = min + (max−min)/(1+10^(∧)((LogAC50−X)×Hillslope)). [formula]

Assay [1] has as its target T1, PKR in ex vivo red blood cells from healthy individuals (Homo sapiens, UniProt P30613).
T1 construct: endogenous in cells; host or cells: human red blood cells isolated from fresh peripheral blood of healthy individuals
Description: ex vivo pyruvate kinase (PKR) activity experiment, red blood cells of healthy individuals. The class given is cell-based. Particulars: 3 hours co-cultivation. How it is done:
To test the effects of the compound of the present disclosure on PKR activation in ex vivo red blood cells from healthy individuals and patients with thalassemia.
• i. 5 g of glucose, 85 mg of adenine, and 2.625 g of mannitol were weighed and added into a 50 mL centrifuge tube. 40 mL of PBS was added to dissolve (sonicate for 30 minutes until completely dissolved). The solution was filtered through a 0.22 µm filter, then added to 460 mL of sterile PBS and mixed thoroughly.
• i. Fresh human peripheral blood was collected. K2EDTA was used as the anticoagulant. 1 part anticoagulant with 9 parts blood was mixed, then centrifuged at 500 g for 10 minutes at room temperature to remove the plasma. • ii. Packed red blood cells: 1.5 volumes of PBS were added, then centrifuged at 2000 ×g for 5 minutes at room temperature. After centrifugation, the supernatant was removed. This step was repeated twice. • iii. Diluted red blood cells: 1.5 volumes of PBS were added, then resuspended and mixed thoroughly. • iv. The diluted red blood cells were slowly added to 0.5 volume of 70% isotonic solution (e.g., 7.5 mL of diluted red blood cells + 3 mL of 70% isotonic solution Percoll) and centrifuged at 4000 ×g for 20 minutes at 4°C. • v. The supernatant was removed. The red blood cells at the bottom were washed once with 4-5 mL of PBS to elute the Percoll gel, and then centrifuged at 2000 ×g for 5 minutes at room temperature. • vi. The supernatant was removed. The red blood cells were counted and then diluted in AGAM medium containing 10% FBS to a density of 2 × 10^8 cells/mL for storage at 4°C.
i. The red blood cells were seeded into a 96-well plate at a uniform density of 1 × 10^7 cells/mL, with 100 µL per well. The test compounds (dissolved in DMSO) were diluted and added to the cell culture medium, resulting in final compound concentrations of 3000, 1000, 300, 100, 10, 3, and 1 nM (with 1% DMSO). The cells and compounds were co-cultivated for 3 hours in a 37°C incubator with 5% CO2. Subsequently, the plate was centrifuged at 2000 g for 20 minutes, and the supernatant was discarded. 100 µL of red blood cell lysis buffer was added to the cell pellet, vortexed for 20 minutes, and centrifuged at 4000 g for 5 minutes. The supernatant was collected for analysis. ii. The reaction system was prepared according to the kit instructions (shown as the table below), 10 µL of the reaction system was added to each well of a 384-well plate, and 10 µL of red blood cell lysis buffer was took and mixed well (20 µL reaction system).
iii. A black, transparent-bottomed 384-well plate was placed in a microplate reader to measure fluorescence at 540/590 nm. The fluorescence was read every 2 minutes for 1 hour.
i. The Slope value was calculated over the assay time. Compound activation percentage was calculated using the 1% DMSO well as the control well. Activation percentage = (Slope of compound well / Slope of control well) × 100% ii. Dose-response curve was fit using the logarithmic compound concentration on the X-axis and the percent activation percentage on the Y-axis, the log(agonist) vs. response - variable slope function in GraphPad Prism 5 was used to determine the AC50 value for each compound on PKR activity. Y = min + (max−min)/(1+10^(∧)((LogAC50−X)×Hillslope)). [formula] The PKR agonist effects of the compound of the present disclosure on ex vivo red blood cells from healthy individuals and thalassemia patients were determined using the above assay. The AC50 values measured on ex vivo red blood cells from healthy individuals are as follows (A represents 0-100 nM, B represents 101-300 nM, and C represents 300-1000 nM): […]

T1 sequence (P30613 whole entry): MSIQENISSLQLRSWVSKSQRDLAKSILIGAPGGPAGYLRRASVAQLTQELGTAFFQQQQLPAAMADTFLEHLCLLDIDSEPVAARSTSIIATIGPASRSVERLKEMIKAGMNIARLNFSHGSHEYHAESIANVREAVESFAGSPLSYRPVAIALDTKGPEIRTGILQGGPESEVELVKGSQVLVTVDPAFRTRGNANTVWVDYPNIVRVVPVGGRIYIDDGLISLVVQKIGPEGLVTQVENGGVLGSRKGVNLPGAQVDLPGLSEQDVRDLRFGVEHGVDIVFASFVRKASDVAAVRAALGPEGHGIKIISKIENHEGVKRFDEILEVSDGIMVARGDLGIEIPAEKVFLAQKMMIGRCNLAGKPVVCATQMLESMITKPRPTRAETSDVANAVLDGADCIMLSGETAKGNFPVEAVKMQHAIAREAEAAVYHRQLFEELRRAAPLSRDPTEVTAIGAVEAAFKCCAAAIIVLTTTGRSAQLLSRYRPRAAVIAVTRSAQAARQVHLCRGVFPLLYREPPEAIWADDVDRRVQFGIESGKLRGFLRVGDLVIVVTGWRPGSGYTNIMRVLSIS
recombinant human PKR, sequence (P30613 whole entry): as above

As for `O=C(C(CO)c1ccccc1)N1CC(=C2CN(S(=O)(=O)c3ccc(OC(F)F)cc3)C2)C1` (stereo not shown) [Compound 6, 1-(1'-((4-(difluoromethoxy)phenyl)sulfonyl)-1',4'-dihydro-2H,2'H-[3,3'-diazetidinylidene]-1(4H)-yl)-3-hydroxy-2-phenylpropan-1-one], the AC50 on recombinant human PKR is under 100 nM; in assay [1], 101 to 300 nM.
Regarding `O=C(C(O)c1ccccc1)N1CC(=C2CN(S(=O)(=O)c3ccc(OC(F)F)cc3)C2)C1` (stereo not shown) [Compound 8, 1-(1'-((4-(difluoromethoxy)phenyl)sulfonyl)-1',4'-dihydro-2H,2'H-[3,3'-diazetidinylidene]-1(4H)-yl)-2-hydroxy-2-phenylethan-1-one], the figures for the AC50 (at recombinant human PKR; in assay [1]) were 300 to 1000 nM and under 100 nM, respectively.
For `O=C(N1CC(=C2CN(S(=O)(=O)c3ccc(OC(F)F)cc3)C2)C1)C1(c2ccccc2)CCOCC1` [Compound 14, (1'-((4-(difluoromethoxy)phenyl)sulfonyl)-1',4'-dihydro-2H,2'H-[3,3'-diazetidinylidene]-1(4H)-yl)(4-phenyltetrahydro-2H-pyran-4-yl)methanone] the same measures were 101 to 300 nM and 101 to 300 nM.
The matching figures for `O=C(C(CO)c1ccc(F)cc1)N1CC(=C2CN(S(=O)(=O)c3ccc4c(c3)OCCO4)C2)C1` (stereo not shown) [Compound 18, 1-(1'-((2,3-dihydrobenzo[b][1,4]dioxin-6-yl)sulfonyl)-1',4'-dihydro-2H,2'H-[3,3'-diazetidinylidene]-1 (4H)-yl)-2-(4-fluorophenyl)-3-hydroxypropan-1-one]: under 100 nM and under 100 nM.
The matching figures for `O=C(C(CO)c1ccc(F)cc1)N1CC(=C2CN(S(=O)(=O)c3cnc4c(c3)OCCO4)C2)C1` (stereo not shown) [Compound 19, 1-(1'-((2,3-dihydro-[1,4]dioxolane[2,3-b]pyridin-7-yl)sulfonyl)-1',4'-dihydro-2H,2'H-[3,3'-diazetidinylidene]-1(4H)-yl)-2-(4-fluorophenyl)-3-hydroxypropan-1-one]: 101 to 300 nM and 300 to 1000 nM.
As to `NC(C(=O)N1CC(=C2CN(S(=O)(=O)c3ccc(OC(F)F)cc3)C2)C1)c1ccccc1` (stereo not shown) [Compound 21, 2-amino-1-(1'-((4-(difluoromethoxy)phenyl)sulfonyl)-1',4'-dihydro-2H,2'H-[3,3'-diazetidinylidene]-1 (4H)-yl)-2-phenylethan-1-one], the AC50 at recombinant human PKR was 300 to 1000 nM; in assay [1] it was under 100 nM.
For `CNCC(C(=O)N1CC(=C2CN(S(=O)(=O)c3ccc4c(c3)OCCO4)C2)C1)c1cccc(Cl)c1` (stereo not shown) [Compound 26, 2-(3-chlorophenyl)-1-(1'-((2,3-dihydrobenzo[b][1,4]dioxin-6-yl)sulfonyl)-1',4'-dihydro-2H,2'H-[3,3'-diazetidinylidene]-1(4H)-yl)-3-(methylamino)propan-1-one] the same measures were under 100 nM and 300 to 1000 nM.
For `O=C([C@H](CO)c1ccccc1)N1CC(=C2CN(S(=O)(=O)c3ccc(-c4ncco4)c(F)c3)C2)C1` [Compound 27, (S)-1-(1'-((3-fluoro-4-(oxazol-2-yl)phenyl)sulfonyl)-1',4'-dihydro-2H,2'H-[3,3'-diazetidinylidene]-1(4 H)-yl)-3-hydroxy-2-phenylpropan-1-one] the same measures were 300 to 1000 nM and 300 to 1000 nM.
The matching figures for `O=C(N1CC(=C2CN(S(=O)(=O)c3ccc4ncsc4c3)C2)C1)C1(c2ccccc2)CCOCC1` [Compound 29, (1'-(benzo[d]thiazol-6-ylsulfonyl)-1',4'-dihydro-2H,2'H-[3.3'-diazetidinylidene]-1(4H)-yl)(4-phenyltetrahydro-2H-pyran-4-yl)methanone]: under 100 nM and under 100 nM.
`Cc1nc2ccc(S(=O)(=O)N3CC(=C4CN(C(=O)[C@H](CO)c5ccccc5)C4)C3)cc2s1` [Compound 35, (S)-3-hydroxy-1-(1'-((2-methylbenzo[d]thiazol-6-yl)sulfonyl)-1',4'-dihydro-2H,2'H-[3,3'-diazetidinylidene]-1(4H)-yl)-2-phenylpropan-1-one]: the AC50 (at recombinant human PKR; in assay [1]) was under 100 nM in each case.
The compound `Cn1cnc2ccc(S(=O)(=O)N3CC(=C4CN(C(=O)[C@H](CO)c5ccccc5)C4)C3)cc21` [Compound 63, (S)-3-hydroxy-1-(1'-((1-methyl-1H-benzimidazol-6-yl)sulfonyl)-1',4'-dihydro-2H,2'H-[3,3'-diazetidinylidene]-1(4H)-yl)-2-phenylpropan-1-one] displayed an AC50 in assay [1] of 300 to 1000 nM.
Same read-out and setting: the figure for `O=C([C@H](CO)c1ccccc1)N1CC(=C2CN(S(=O)(=O)c3ccc(Cl)cn3)C2)C1` [Compound 66] is under 100 nM.
Still for that read-out and setting: the figure for `O=C([C@H](CO)c1ccccc1)N1CC(=C2CN(S(=O)(=O)c3cccnc3)C2)C1` [Compound 68, (S)-3-hydroxy-2-phenyl-1-(1'-(pyridin-3-ylsulfonyl)-1',4'-dihydro-2H,2'H-[3,3'-diazetidinylidene]-1(4H)-yl)propane-1-one] is 101 to 300 nM.
Same read-out and setting: under `N#Cc1ccc(S(=O)(=O)N2CC(=C3CN(C(=O)[C@H](CO)c4ccccc4)C3)C2)nc1` [Compound 70, (S)-6-((1'-(3-hydroxy-2-phenylpropionyl)-1',4'-dihydro-2H,2'H-[3,3'-diazetidinylidene]-1(4H)-yl)sulfonyl)nicotinonitrile] stands 101 to 300 nM.
Regarding `O=C(C(CO)c1ccc(C(F)F)cc1)N1CC(=C2CN(S(=O)(=O)c3ccccn3)C2)C1` (stereo not shown) [Compound 71, 2-(4-(difluoromethyl)phenyl)-3-hydroxy-1-(1'-(pyridin-2-ylsulfonyl)-1',4'-dihydro-2H,2'H-[3,3'-diazetidinylidene]-1(4H)-y 1)propan-1-one], the AC50 in assay [1] was 101 to 300 nM.
Still for that read-out and setting: the figure for `CC(C)Oc1ccc(S(=O)(=O)N2CC(=C3CN(C(=O)[C@H](CO)c4ccccc4)C3)C2)nc1` [Compound 81, (S)-3-hydroxy-1-(1'-((5-isopropoxypyridin-2-yl)sulfonyl)-1',4'-dihydro-2H,2'H-[3,3'-diazetidinylidene]-1(4H)-yl)-2-phenylpropan-1-one] is 300 to 1000 nM; for `O=C([C@H](CO)c1ccccc1)N1CC(=C2CN(S(=O)(=O)c3ccc(OC4CC4)cn3)C2)C1` [Compound 82, (S)-1-(1'-((5-cyclopropoxypyridin-2-yl)sulfonyl)-1',4'-dihydro-2H,2'H-[3,3'-diazetidinylidene]-1(4H) -yl)-3-hydroxy-2-phenylpropan-1-one] it is 101 to 300 nM; for `O=C(C(CO)C1CCCCC1)N1CC(=C2CN(S(=O)(=O)c3ccccn3)C2)C1` (stereo not shown) [Compound 90, 2-cyclohexyl-3-hydroxy-1-(1'-(pyridin-2-ylsulfonyl)-1',4'-dihydro-2H,2'H-[3,3'-diazetidinylidene]-1(4H)-yl)propan-1-one] it is 300 to 1000 nM.
